Laboratory results reported in patent US20180221457A1 (VAL-CHUM, LIMITED PARTNERSHIP, priority 2015, published 2018).

What was measured:
human G3PP (hG3PP) = molecular target: T1, human G3PP (hG3PP) (Homo sapiens, UniProt A6NDG6); experiment: Effect of organic acids on G3PP activity in hG3PP-overexpressing 293T cell extracts; format: biochemical; settings: 10 mM Gro3P substrate, 2 or 10 mM test organic acid, 30 min at 30° C.
T1 construct: expressed in transfected cells; host or cells: 293T cells (whole cell extract)
T1 sequence (A6NDG6 1-321): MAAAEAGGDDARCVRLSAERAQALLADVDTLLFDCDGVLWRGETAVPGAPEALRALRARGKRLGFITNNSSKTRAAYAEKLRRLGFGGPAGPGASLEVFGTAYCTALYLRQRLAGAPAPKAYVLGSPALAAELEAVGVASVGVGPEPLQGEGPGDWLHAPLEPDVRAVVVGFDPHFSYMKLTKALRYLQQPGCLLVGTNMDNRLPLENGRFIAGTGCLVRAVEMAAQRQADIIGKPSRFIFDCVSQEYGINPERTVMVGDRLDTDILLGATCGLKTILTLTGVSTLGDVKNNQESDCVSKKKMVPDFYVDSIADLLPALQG
Method: In order to examine the effect of various compounds on G3PP activity, human G3PP (hG3PP) was overexpressed in 293T cells, using a plasmid vector. Simultaneously control cells received GFP (Green Fluorescent Protein) expression plasmid. After 72 h following transfection, cells were harvested and whole cell extracts were prepared in Krebs Ringer Buffer (KRBH). G3PP was assayed using […] G3PP cell extract protein (or GFP control extract) with 10 mM Gro3P substrate and 2 or 10 mM test organic acid (R-hydroxy butyric acid, glycolate, succinate, citrate, malate, fumarate, lactate and malonate). Incubations were for 30 min at 30° C. Then the reactions were stopped by adding perchloric acid and glycerol released was measured using Γ-^32P-labeled ATP plus glycerokinase. The amount of glycerol release is proportional to the activity of hG3PP in the cell extracts.

INS832/13 β-cells = experiment: Free fatty acids and glycerol release from INS832/13 cells; format: cell-based, rat; settings: 50 μM orlistat, 2 h
Method: (§1) Free fatty acids and glycerol release. For FFA determinations, isolated rat islets were pre-incubated for 1 h in KRBH containing 2 mM glutamine and at 4 mM glucose, 50 μM carnitine and then incubated for 2 h at 4, 10, 16 and 25 mM glucose. The low and high glucose concentrations were 2 and 10 mM, respectively, when INS832/13 cells were used. Incubations were done without and with the panlipase inhibitor, orlistat. Cells and islets were harvested after incubations for protein extraction. FFA released into the medium were extracted by a modified Dole-Meinertz extraction procedure (Puttmann et al., 1993). Briefly, the media (0.5 ml), in Pyrex glass tubes, were mixed with the internal standard [^2H31]-palmitic acid and extracted with 2.5 ml of a solvent mixture containing isopropanol-n-heptane-2M phosphoric acid (40:10:1, v/v). […] The dried fatty acids were derivatized with phenacylbromide and quantified by reverse phase HPLC (Mehta et al., 1998) using a Zorbax Eclipse plus XDB analytical C18 column (4.6×250 mm; 5 μm; Agilent Technology). FFA were eluted using methanol/water (92.5:7.5, v/v) at a flow rate of 1.5 ml/min and absorbance of eluting FFA-phenacyl derivatives was measured at 242 and 254 nm. […] Glycerol release was determined by a radiometric glycerol assay (Bradley and Kaslow, 1989) using [Γ-^32P]ATP and glycerokinase.

rat islets = experiment: Free fatty acids and glycerol release from isolated rat islets; format: cell-based; settings: 50 μM orlistat, 2 h
Method: Islet and hepatocyte isolation. Pancreatic islets were isolated from rats and mice (Peyot et al., 2009). Isolated islets were cultured overnight at 37° C. in complete RPMI 1640 medium. Hepatocytes were isolated from rats by in situ collagenase perfusion and were seeded in DMEM complete medium (Merlen et al., 2014).
as §1, with “v/v). After thorough mixing by vortex, the tubes were kept in a bath sonicator (Branson Ultrasonic) and sonicated for 2 min with 30 s intervals, avoiding sample heating. After rigorous mixing by vortex, the tubes were let stand at room temperature for 10 min, and then heptane (1 ml) and water (1.5 ml) were added and the tubes were thoroughly mixed by vortex followed by sonication for 1 min. Then the tubes were centrifuged at 1000×g for 10 min at 4° C.” for “v/v).”, “glycerokinase. […]” for “glycerokinase.”

[1] = substrate: O=P(O)(O)OCC(O)CO; experiment: purified protein, by the assay type; settings: other: substrate glycerol-3-phosphate; pH 7.5

CC(O)CC(=O)O (stereo not drawn) [beta-hydroxybutyrate]
G3PP activity (glycerol released) (human G3PP (hG3PP)): stimulated

O=C(O)/C=C/C(=O)O [fumarate]
G3PP activity (glycerol released) (human G3PP (hG3PP)): do not activate similarly

O=C(O)CC(O)C(=O)O (stereo not drawn) [malate]
G3PP activity (glycerol released) (human G3PP (hG3PP)): do not activate similarly

O=C(O)CC(=O)O [malonate]
G3PP activity (glycerol released) (human G3PP (hG3PP)): do not activate similarly

CCCCCCCCCCC[C@@H](C[C@@H]1OC(=O)[C@H]1CCCCCC)OC(=O)[C@H](CC(C)C)NC=O [orlistat]
glycerol release (INS832/13 β-cells; elevated glucose concentration): not inhibited
FFA release (lipolysis) (INS832/13 β-cells; high glucose concentrations): reduction
glycerol release (rat islets; elevated glucose concentration): not inhibited
FFA release (lipolysis) (rat islets; high glucose concentrations): reduction
glycerol release (rat islets; medium concentration of glucose (10 mM)): moderate inhibition

O=C(O)CCC(=O)O [succinate]
G3PP activity (glycerol released) (human G3PP (hG3PP)): marked stimulation

B1: Recombinant human PGP (Homo sapiens) (protein)
chain: MAAAEAGGDDARCVRLSAERAQALLADVDTLLFDCDGVLWRGETAVPGAPEALRALRARGKRLGFITNNSSKTRAAYAEKLRRLGFGGPAGPGASLEVFGTAYCTALYLRQRLAGAPAPKAYVLGSPALAAELEAVGVASVGVGPEPLQGEGPGDWLHAPLEPDVRAVVVGFDPHFSYMKLTKALRYLQQPGCLLVGTNMDNRLPLENGRFIAGTGCLVRAVEMAAQRQADIIGKPSRFIFDCVSQEYGINPERTVMVGDRLDTDILLGATCGLKTILTLTGVSTLGDVKNNQESDCVSKKKMVPDFYVDSIADLLPALQG
Km [1]: 1500 µM
kcat [1]: 0.1 s⁻¹
